From PubChem BioAssay (NCI)
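Grown in 96-well plates, cells were treated for 48 hours with each compound at five concentrations. Insufficient inhibition: endpoint recorded as highest concentration tested. The concentration for full growth arrest is given as TGI.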

How the values were obtained:
Assay in all cases: NCI anticancer screen, dose series, 48 h
DMS 273 small cell lung = system: DMS 273 small cell lung
RXF-631 renal = system: RXF-631 renal
ACHN renal = system: ACHN renal
HCT-15 colon = system: HCT-15 colon
SK-OV-3 ovarian = system: SK-OV-3 ovarian
UO-31 renal = system: UO-31 renal
UACC-257 melanoma = system: UACC-257 melanoma
HOP-62 NSCLC = system: HOP-62 NSCLC
SF-268 CNS = system: SF-268 CNS
K-562 leukemia = system: K-562 leukemia
HL-60(TB) leukemia = system: HL-60(TB) leukemia
HCC-2998 colon = system: HCC-2998 colon
MALME-3M melanoma = system: MALME-3M melanoma
NCI-H460 lung = system: NCI-H460 lung
M14 melanoma = system: M14 melanoma
CCRF-CEM leukemia = system: CCRF-CEM leukemia
IGROV1 ovarian = system: IGROV1 ovarian
MOLT-4 leukemia = system: MOLT-4 leukemia
LOX IMVI melanoma = system: LOX IMVI melanoma
LXFL 529 NSCLC = system: LXFL 529 NSCLC
XF 498 CNS = system: XF 498 CNS
TK-10 renal = system: TK-10 renal
M19-MEL melanoma = system: M19-MEL melanoma
U251 CNS = system: U251 CNS
HOP-18 NSCLC = system: HOP-18 NSCLC
SF-539 CNS = system: SF-539 CNS
HT29 colon = system: HT29 colon
786-0 renal = system: 786-0 renal
HCT-116 colon = system: HCT-116 colon
SK-MEL-5 melanoma = system: SK-MEL-5 melanoma
SK-MEL-2 melanoma = system: SK-MEL-2 melanoma
OVCAR-5 ovarian = system: OVCAR-5 ovarian
A549 NSCLC = system: A549 NSCLC
SW-620 colon = system: SW-620 colon
OVCAR-3 ovarian = system: OVCAR-3 ovarian
SNB-19 CNS = system: SNB-19 CNS
NCI-H226 lung = system: NCI-H226 lung
COLO 205 colon = system: COLO 205 colon
NCI-H522 lung = system: NCI-H522 lung
DMS 114 small cell lung = system: DMS 114 small cell lung
OVCAR-8 ovarian = system: OVCAR-8 ovarian
SNB-78 CNS = system: SNB-78 CNS
DLD-1 colon = system: DLD-1 colon
A498 renal = system: A498 renal
RPMI-8226 leukemia = system: RPMI-8226 leukemia
UACC-62 melanoma = system: UACC-62 melanoma
HOP-92 NSCLC = system: HOP-92 NSCLC
CAKI-1 renal = system: CAKI-1 renal
RXF 393 renal = system: RXF 393 renal
SN12C renal = system: SN12C renal
KM12 colon = system: KM12 colon
SR leukemia = system: SR leukemia
SK-MEL-28 melanoma = system: SK-MEL-28 melanoma
SF-295 CNS = system: SF-295 CNS
OVCAR-4 ovarian = system: OVCAR-4 ovarian
EKVX NSCLC = system: EKVX NSCLC
NCI-H23 lung = system: NCI-H23 lung
KM20L2 colon = system: KM20L2 colon
SNB-75 CNS = system: SNB-75 CNS

Which results are given for `CCOC(=O)/C(ON)=C(/CC/C(C(=O)OC)=C(\ON)C(=O)OCC)C(=O)OC`?
TGI (DMS 273 small cell lung): > 100 µM; TGI (RXF-631 renal): > 100 µM; TGI (ACHN renal): > 100 µM; TGI (HCT-15 colon): > 100 µM; TGI (SK-OV-3 ovarian): > 100 µM; TGI (UO-31 renal): > 100 µM; TGI (UACC-257 melanoma): > 100 µM; TGI (HOP-62 NSCLC): > 100 µM; TGI (SF-268 CNS): > 100 µM; TGI (K-562 leukemia): > 100 µM; TGI (HL-60(TB) leukemia): > 100 µM; TGI (HCC-2998 colon): > 100 µM; TGI (MALME-3M melanoma): > 100 µM; TGI (NCI-H460 lung): > 100 µM; TGI (M14 melanoma): > 100 µM; TGI (CCRF-CEM leukemia): > 100 µM; TGI (IGROV1 ovarian): > 100 µM; TGI (MOLT-4 leukemia): > 100 µM; TGI (LOX IMVI melanoma): > 100 µM; TGI (LXFL 529 NSCLC): > 100 µM; TGI (XF 498 CNS): > 100 µM; TGI (TK-10 renal): > 100 µM; TGI (M19-MEL melanoma): > 100 µM; TGI (U251 CNS): > 100 µM; TGI (HOP-18 NSCLC): > 100 µM; TGI (SF-539 CNS): > 100 µM; TGI (HT29 colon): > 100 µM; TGI (786-0 renal): > 100 µM; TGI (HCT-116 colon): > 100 µM; TGI (SK-MEL-5 melanoma): > 100 µM; TGI (SK-MEL-2 melanoma): > 100 µM; TGI (OVCAR-5 ovarian): > 100 µM; TGI (A549 NSCLC): > 100 µM; TGI (SW-620 colon): > 100 µM; TGI (OVCAR-3 ovarian): > 100 µM; TGI (SNB-19 CNS): > 100 µM; TGI (NCI-H226 lung): > 100 µM; TGI (COLO 205 colon): > 100 µM; TGI (NCI-H522 lung): > 100 µM; TGI (DMS 114 small cell lung): > 100 µM; TGI (OVCAR-8 ovarian): > 100 µM; TGI (SNB-78 CNS): > 100 µM; TGI (DLD-1 colon): > 100 µM; TGI (A498 renal): > 100 µM; TGI (RPMI-8226 leukemia): > 100 µM; TGI (UACC-62 melanoma): > 100 µM; TGI (HOP-92 NSCLC): > 100 µM; TGI (CAKI-1 renal): > 100 µM; TGI (RXF 393 renal): > 100 µM; TGI (SN12C renal): > 100 µM; TGI (KM12 colon): > 100 µM; TGI (SR leukemia): > 100 µM; TGI (SK-MEL-28 melanoma): > 100 µM; TGI (SF-295 CNS): > 100 µM; TGI (OVCAR-4 ovarian): > 100 µM; TGI (EKVX NSCLC): > 100 µM; TGI (NCI-H23 lung): > 100 µM; TGI (KM20L2 colon): > 100 µM; TGI (SNB-75 CNS): > 100 µM

With `CCCCCCCCCCCCCCCCCC(=O)NCC(COP(=O)([O-])OCC[N+](C)(C)C)OC` (stereo not given) as the compound, how does the TGI (DMS 273 small cell lung) read?
The TGI was 2.93 µM.

And the TGI (RXF-631 renal)?
Its TGI is 26.8 µM.

And the TGI (ACHN renal)?
The TGI was 22.7 µM.

What about the TGI (HCT-15 colon) of the same compound?
Its TGI is 5.89 µM.

And the TGI (SK-OV-3 ovarian)?
The TGI was 28.7 µM.

What about the TGI (UO-31 renal) of the same compound?
The TGI was 30.7 µM.

What about the TGI (UACC-257 melanoma) of the same compound?
Its TGI is 30.2 µM.

And the TGI (HOP-62 NSCLC)?
Its TGI is 8.21 µM.

What about the TGI (SF-268 CNS) of the same compound?
The TGI was 17.5 µM.

And the TGI (HL-60(TB) leukemia)?
Its TGI is 2.9 µM.

And the TGI (HCC-2998 colon)?
The TGI was 2.31 µM.

And the TGI (MALME-3M melanoma)?
Its TGI is 20.9 µM.

What about the TGI (NCI-H460 lung) of the same compound?
Its TGI is 2.59 µM.

What about the TGI (M14 melanoma) of the same compound?
Its TGI is 25.5 µM.

What about the TGI (CCRF-CEM leukemia) of the same compound?
The TGI was 5.66 µM.

And the TGI (IGROV1 ovarian)?
The TGI was 4.72 µM.

And the TGI (MOLT-4 leukemia)?
The TGI was 3.56 µM.

And the TGI (LOX IMVI melanoma)?
The TGI was 23.3 µM.

What about the TGI (LXFL 529 NSCLC) of the same compound?
The TGI was 19.7 µM.

And the TGI (XF 498 CNS)?
Its TGI is 8.58 µM.

And the TGI (TK-10 renal)?
The TGI was 3.02 µM.

And the TGI (M19-MEL melanoma)?
The TGI was 6.28 µM.

What about the TGI (U251 CNS) of the same compound?
Its TGI is 4.04 µM.

What about the TGI (HOP-18 NSCLC) of the same compound?
The TGI was 6.92 µM.

What about the TGI (SF-539 CNS) of the same compound?
The TGI was 31.8 µM.

What about the TGI (HT29 colon) of the same compound?
The TGI was 12.9 µM.

And the TGI (786-0 renal)?
The TGI was 3.07 µM.

What about the TGI (HCT-116 colon) of the same compound?
Its TGI is 18.5 µM.

What about the TGI (SK-MEL-5 melanoma) of the same compound?
Its TGI is 29.5 µM.

What about the TGI (OVCAR-5 ovarian) of the same compound?
The TGI was 14.4 µM.

What about the TGI (A549 NSCLC) of the same compound?
The TGI was 22.4 µM.

And the TGI (SW-620 colon)?
The TGI was 22.9 µM.

And the TGI (OVCAR-3 ovarian)?
The TGI was 10.2 µM.

What about the TGI (SNB-19 CNS) of the same compound?
The TGI was 3.48 µM.

What about the TGI (NCI-H226 lung) of the same compound?
The TGI was 8.69 µM.

And the TGI (COLO 205 colon)?
The TGI was 3.24 µM.

And the TGI (DMS 114 small cell lung)?
Its TGI is 22.7 µM.

What about the TGI (OVCAR-8 ovarian) of the same compound?
Its TGI is 23.6 µM.

What about the TGI (SNB-78 CNS) of the same compound?
Its TGI is 13.6 µM.

What about the TGI (DLD-1 colon) of the same compound?
The TGI was 8.17 µM.

What about the TGI (A498 renal) of the same compound?
Its TGI is 10.3 µM.

What about the TGI (RPMI-8226 leukemia) of the same compound?
Its TGI is 4.67 µM.

And the TGI (UACC-62 melanoma)?
The TGI was 16.9 µM.

And the TGI (HOP-92 NSCLC)?
The TGI was 8.17 µM.

What about the TGI (CAKI-1 renal) of the same compound?
The TGI was 8.14 µM.

And the TGI (RXF 393 renal)?
Its TGI is 2.1 µM.

And the TGI (SN12C renal)?
The TGI was 15.3 µM.

And the TGI (KM12 colon)?
Its TGI is 2.09 µM.

And the TGI (SR leukemia)?
Its TGI is 7.36 µM.

And the TGI (SK-MEL-28 melanoma)?
The TGI was 30.6 µM.

What about the TGI (SF-295 CNS) of the same compound?
The TGI was 13 µM.

What about the TGI (OVCAR-4 ovarian) of the same compound?
Its TGI is 13 µM.

What about the TGI (EKVX NSCLC) of the same compound?
The TGI was 31.1 µM.

And the TGI (NCI-H23 lung)?
The TGI was 28.7 µM.

What about the TGI (KM20L2 colon) of the same compound?
The TGI was 5.5 µM.

What about the TGI (SNB-75 CNS) of the same compound?
The TGI was 15.8 µM.
